In article PMC9775371, “Structure-Based Virtual Screening and Functional Validation of Potential Hit Molecules Targeting the SARS-CoV-2 Main Protease” (Biomolecules, 2022):

Key:
[1] = target: T1, SARS-CoV-2 M^pro (main protease, 3CL^pro) (Severe acute respiratory syndrome coronavirus 2, UniProt P0DTD1); assay: BRET-based sensor proteolytic cleavage assay; assay type: biochemical; details: 2 μM purified M^pro preincubated with compound 1 h at 37 °C; TBS, 1 M sodium citrate, 1 mM EDTA, 2 mM DTT; mNG-NLuc sensor substrate in HEK 293T lysate; read at 30 min
T1 construct: gene rep

[2] = target: T1, SARS-CoV-2 M^pro (main protease, 3CL^pro); assay: BRET-based sensor proteolytic cleavage assay; assay type: biochemical; details: read-out: Determined EC50
Text: BRET-based sensor proteolytic cleavage assay on SARS-CoV-2 M^pro (main protease, 3CL^pro)

CCCc1nc2c(C)cc(-c3nc4ccccc4n3C)cc2n1Cc1ccc(-c2ccccc2C(=O)O)cc1 [TM, Telmisartan]
EC50 not determined [1]: Telmisartan completely failed to inhibit M^pro

CCCCc1nc(Cl)c(CO)n1Cc1ccc(-c2ccccc2-c2nn[nH]n2)cc1 [LT, Losartan]
EC50 [2]: 260 ± 88.6 µM
